Reference: patent publication US20150132388A1 (Druggability Technologies Holdings Limited, priority 2013, published 2015)

Columns and labels:
[1] = PAMPA permeability; format: in vitro ADME; conditions: both the fed and fasted state simulating conditions
Description: Reference source not found. PAMPA permeability measurements were performed as described by M. Kansi et al. (Journal of medicinal chemistry, 41, (1998) pp 1007) with modifications based on S. Bendels et al (Pharmaceutical research, 23 (2006) pp 2525). Permeability was measured in a 96-well plate assay across an artificial membrane composed of dodecane with 20% soy lecithin supported by a PVDF membrane (Millipore, USA). The receiver compartment was phosphate buffered saline (pH 7.0) supplemented with 1% sodium dodecyl sulfate. The assay was performed at room temperature; incubation time was 1-24 hours. The concentration in the receiver compartment was determined by UV-VIS spectrophotometry (Thermo Scientific Genesys S10).
The ratio of the selected complexation agents and pharmaceutically acceptable excipients (Lutrol F127 and Sodium acetate) was optimized.

[2] = Comparative solubility test (apparent solubility, UV-VIS); format: physicochemical; conditions: distillated water, room temperature, 100 nm syringe filter
Description: The samples were dispersed in distillated water and the resulting dispersions were filtered by 100 nm disposable syringe filter. The active content in the filtrate was measured by UV-Vis spectrophotometry and the solubility was calculated.

[3] = cited from earlier work
[4] = system: tamoxifen-resistant, as well as estrogen-sensitive human breast cancer (MCF-7) cell lines; conditions: tamoxifen-resistant and estrogen-sensitive MCF-7 cell lines; cited from earlier work
[5] = system: xenografts of human breast cancer MCF-7 cells; conditions: cited from earlier work
[6] = immature or ovariectomized mice and rats; cited from earlier work
[7] = immature rats and ovariectomized monkeys; cited from earlier work
[8] = intramuscular injection of 250 mg

7-alpha-[9-(4,4,5,5,5-penta fluoropentylsulphinyl)nonyl]estra-1,3,5-(10)-triene-3,17 beta-diol [Fulvestrant]
PAMPA permeability [1]: not detectable | Solubility (apparent solubility) [2]: < 30 µg/mL | Time to maximum plasma concentrations ([3]; 250 mg intramuscularly): about 7 days | Excretion via the feces ([3]; in vivo): approximately 90% | Renal elimination ([3]; in vivo): less than 1% | Apparent half-life [3, 8]: about 40 days | Clearance (Mean±SD) [3, 8]: 690 ± 226 mL/min | Bioavailability ([3]; intramuscular, between study comparisons): 90-100% | Accumulation ([3]; once a month administration): 2-3 fold | Time to steady state ([3]; once a month administration): about 6 months | Terminal half-life ([3]; single dose studies, intramuscular): about 50 days | Inhibition of cell growth [4]: reversible inhibitor of the growth | Establishment of tumors from xenografts ([5]; MCF-7 cells in nude mice): delayed the establishment of tumors | Growth of established xenografts ([5]; established MCF-7 xenografts and tamoxifen-resistant breast tumor xenografts): inhibited the growth | Agonist-type effects in uterotropic assays [6]: no agonist-type effects | Effect on the uterotrophic action of estradiol [7]: blocked the uterotrophic action of estradiol
